Laboratory results published in patent US9056887B2, “Minor groove binder phosphoramidites and methods of use” (Elitech Holding B.V., priority 2011, dated 2015).

Test: Solubility of MGB phosphoramidites in acetonitrile (oligonucleotide synthesis solvent)
Type: physicochemical
Conditions: standard solvent for on-line oligosynthesis
Description: Activated pentafluorophenyl ester 1 of the DPI3 type of minor groove bindinding ligands was prepared as previously described (U.S. Pat. No. 7,381,818) and coupled with four secondary amine-containing terminal functions generatin trimers 2(a-d), (Reaction Scheme 1, FIG. 1) suitable for following protection and phosphoramidite preparation. The use of secondary amino function prevents the possibility of the formation of acyclic side-product (Basel and Hassner 2000) during the following protection step. The trimers 2(a-d) were reacted with diethyl pyrocarbonate in the presence of DMAP to protect the three heteroaromatic indolamino groups and afford carbomates 3(a-d). Methyl and tert-butyl dicarbonates were also tested and produced the respective carbamates with good yields. […] Therefore, the ethylcarbamate protection was concluded to be optimal allowing fast deprotection and providing the required solubility in acetonitrile. […]
Test octathymidylates were synthesized on an ABI 3900 DNA synthesizer using thymidine-5′- or 3′-phosphoramidites and a DMT-O-hexylsuccinate solid support. […] Crude reaction mixtures were concentrated in a SpeedVac evaporator and analyzed by mass spectroscopy to confirm molecular weight and determine purity of crude MGB-oligonucleotide conjugates. […]

SMILES: CCOC(=O)n1c(-c2ccc(OCCCCCCOP(OCCC#N)N(C(C)C)C(C)C)cc2)nc2cc(-c3nc4cc(-c5nc6cc(N7CCN(C)CC7)ccc6n5C(=O)OCC)ccc4n3C(=O)OCC)ccc21 (stereo not shown) [Phosphoramidite 25]
- solubility in acetonitrile: only sparingly soluble
